Measured values reported in PubChem BioAssay (NCI).
“And” between values parts separate entries of the source, which are not always exact repeats. Identical values can stand only once.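 A five-concentration, 48-hour dose response in 96-well plates underlies each endpoint, interpolated linearly between surrounding concentrations. GI50 marks 50% less growth. TGI marks complete inhibition of growth.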

What was measured:
Test in all cases: growth of human tumour cells (NCI), 48 h
T-47D breast = system: T-47D breast
BT-549 breast = system: BT-549 breast
NCI-H226 lung = system: NCI-H226 lung
HOP-92 NSCLC = system: HOP-92 NSCLC
RPMI-8226 leukemia = system: RPMI-8226 leukemia
UACC-62 melanoma = system: UACC-62 melanoma
MOLT-4 leukemia = system: MOLT-4 leukemia
MALME-3M melanoma = system: MALME-3M melanoma
UACC-257 melanoma = system: UACC-257 melanoma
SK-MEL-5 melanoma = system: SK-MEL-5 melanoma

SMILES	GI50 (T-47D breast)	TGI (T-47D breast)	GI50 (BT-549 breast)	TGI (BT-549 breast)	GI50 (NCI-H226 lung)	TGI (NCI-H226 lung)	GI50 (HOP-92 NSCLC)	TGI (HOP-92 NSCLC)	GI50 (RPMI-8226 leukemia)	TGI (RPMI-8226 leukemia)	GI50 (UACC-62 melanoma)	TGI (UACC-62 melanoma)	GI50 (MOLT-4 leukemia)	TGI (MOLT-4 leukemia)	GI50 (MALME-3M melanoma)	TGI (MALME-3M melanoma)	GI50 (UACC-257 melanoma)	TGI (UACC-257 melanoma)	GI50 (SK-MEL-5 melanoma)	TGI (SK-MEL-5 melanoma)
O=C(O)c1ccc2c(c1)CCCC(c1ccc(Cl)cc1Cl)=C2c1ccc(O[C@H]2CCN(CCCF)C2)cc1	< 0.01 µM	22.5 µM	10 µM	22.9 µM	10.4 µM	38.8 µM	11.3 µM	25.1 µM	6.99 µM	27.5 µM	12.7 µM	26.3 µM	8.62 µM	24.2 µM	14.7 µM	35.4 µM	14.1 µM	30 µM	10.8 µM	23.2 µM
COc1ccc(-c2ccc(-c3ccc(C(=N)N)cn3)o2)cc1	5.13 µM	21 µM	10.7 µM	22.8 µM	12.8 µM	29.5 µM	1.31 µM	6.4 µM	2.78 µM	10.1 µM	10.3 µM	22.9 µM	4.4 µM	15.5 µM	3.25 µM	7.32 µM	2.18 µM	4.69 µM	3.43 µM	14.1 µM
OCCNc1ncnc2c1ncn2Cc1cccc(COc2cccc(OCc3cccc(Cn4cnc5c(NCCO)ncnc54)c3)c2)c1	16 µM	33.4 µM	11.9 µM	25.9 µM	15.5 µM	33.3 µM	7.61 µM	23.6 µM	6.47 µM	27.8 µM	17 µM	33.8 µM	11.8 µM	32.4 µM	17.2 µM	38.3 µM	18.4 µM	36.1 µM	16.7 µM	31 µM
Cc1cc(Cl)ccc1Nc1nc(C(F)(F)F)ccc1C(=O)N/N=C/c1ccc([N+](=O)[O-])cc1	2.39 µM	11.6 µM	1.5 µM	4.96 µM	1.58 µM	4.27 µM	1.34 µM	5.47 µM	0.435 µM	1.77 µM	2.6 µM	11.7 µM	–	> 20 µM	1.68 µM	7.09 µM	1.38 µM	5.11 µM	1.87 µM	4.08 µM
COc1ccc2[nH]c(O)c(C(=Nc3ccc(N(C)C(=O)CN4CCN(C)CC4)cc3)c3ccccc3)c2c1	3.54 µM	15.9 µM	1.55 µM	3.19 µM	2.27 µM	15.6 µM	0.436 µM	5.55 µM	2.5 µM	7.53 µM	5.01 µM	16.4 µM	1.45 µM	4.99 µM	1.27 µM	2.85 µM	1.73 µM	4.08 µM	1.75 µM	3.43 µM
CCOc1cccc(/C=N/NC(=O)C(=O)Nc2cccc(C(F)(F)F)c2)c1O	2.67 µM	36.1 µM	5.36 µM	> 100 µM	3.96 µM	50.1 µM	–	–	2.08 µM	> 100 µM	1.06 µM	4.51 µM	1.35 µM	22 µM	4.35 µM	64.2 µM	2.57 µM	25 µM	1.87 µM	19 µM
CCC[n+]1cc2cc(OC)c(OC)cc2c2c1-c1cc3c(cc1C2)OCO3	0.583 µM	3.92 µM	0.658 µM	10.6 µM	1.03 µM	8.13 µM	10.1 µM	40.6 µM	2.34 µM	16 µM	2.06 µM	5.77 µM	1.92 µM	11.4 µM	1.65 µM	4.01 µM	1.19 µM	3.87 µM	2.09 µM	7.11 µM
Cn1c2c(c3ccc(Cl)c(Cl)c31)C(C#N)C1(CCNCC1)NC2=O (centres undefined)	1.72 µM	3.94 µM	3.04 µM	16.7 µM	2.24 µM	12.7 µM	0.484 µM	2.37 µM	1.7 µM	3.87 µM	1.63 µM	3.31 µM	1.23 µM	2.7 µM	1.42 µM	3.19 µM	1.75 µM	3.69 µM	1.5 µM	2.91 µM
C=CC(=O)Nc1cc2c(Nc3ccc(F)c(Cl)c3)ncnc2cc1OCCCN1CCOCC1	0.0677 µM and 0.182 µM	18.7 µM and > 10 µM	2.04 µM and 2.57 µM	5.7 µM and > 7.88 µM	2.08 µM and > 6.11 µM	5.59 µM and > 10 µM	0.534 µM and 0.551 µM	2.49 µM and 5.9 µM	1.94 µM and 2.75 µM	5.17 µM and > 10 µM	1.77 µM and 2.19 µM	4.48 µM and > 7.71 µM	1.85 µM and 2.87 µM	5.18 µM and > 9.25 µM	2.41 µM and 6.17 µM	5.84 µM and > 10 µM	3.42 µM and 9.15 µM	12.8 µM and > 10 µM	3.3 µM and > 7.32 µM	13.3 µM and > 10 µM
COc1ccc(C2=NN(C=O)C(c3cccc(Nc4ccnc5cc(Cl)ccc45)c3)C2)cc1 (centres undefined)	1.39 µM	21 µM	1.93 µM	9.87 µM	3.13 µM	> 100 µM	3.41 µM	> 100 µM	1.36 µM	11.2 µM	2.41 µM	20.6 µM	2.37 µM	11.9 µM	2.04 µM	18.9 µM	3.06 µM	28.5 µM	0.922 µM	3.71 µM
Fc1cc2[nH]ncc2c2c3c(c(-c4cn[nH]c4C(F)(F)F)nc12)C1CCC3C1 (centres undefined)	0.85 µM	3.79 µM	0.883 µM	2.97 µM	0.926 µM	4.72 µM	0.885 µM	3.04 µM	0.804 µM	3.54 µM	0.878 µM	3.39 µM	0.99 µM	4.31 µM	1.45 µM	4.85 µM	1.31 µM	4.51 µM	0.74 µM	1.52 µM
Nc1ccc(C(=O)CC(N)C(=O)O)cc1O (centres undefined)	–	> 100 µM	–	> 100 µM	–	> 100 µM	–	> 100 µM	–	> 100 µM	–	> 100 µM	–	> 100 µM	–	> 100 µM	–	> 100 µM	–	> 100 µM
O=C(O)C1CCCCC1C(=O)O.[NH-]C1CCC1.[NH2-].[Pt+2] (centres undefined)	11 µM	34.7 µM	19.8 µM	77.9 µM	18.9 µM	42.8 µM	19.4 µM	44 µM	–	–	11.4 µM	23.6 µM	5.48 µM	> 100 µM	18.6 µM	38.6 µM	15 µM	36.6 µM	3.36 µM	12.5 µM
CCn1c(-c2nonc2N)nc2c(C#CC(C)(C)O)nc(OCCNC)cc21	3.83 µM	> 25 µM	7.17 µM	> 22.1 µM	8.09 µM	> 23.1 µM	4.59 µM	14.5 µM	9.49 µM	> 25 µM	6.08 µM	16.9 µM	8.68 µM	> 25 µM	7.69 µM	20.6 µM	7.96 µM	24.7 µM	5.19 µM	12 µM
Nc1ccccc1C#C/C=C\C#Cc1ccccc1[N+](=O)[O-]	34.6 µM	> 100 µM	4.66 µM	22.6 µM	–	–	31.7 µM	> 100 µM	4.58 µM	> 100 µM	2.02 µM	10.6 µM	27.7 µM	> 100 µM	–	–	4.98 µM	20 µM	3.08 µM	18.6 µM
COc1ccc(-c2oc3c(OC)c(OC)c(OC)c(OC)c3c(=O)c2OC)cc1OC	–	> 100 µM	–	> 100 µM	–	> 100 µM	–	0.0897 µM	–	34 µM	–	> 100 µM	–	> 100 µM	–	68 µM	–	> 100 µM	–	66.3 µM
COc1cc2c(=O)n(CCN)c3c4cc5c(cc4ccc3c2cc1OC)OCO5	0.508 µM	16.8 µM	1.06 µM	2.7 µM	1.43 µM	3.59 µM	3.31 µM	18 µM	0.356 µM	2.37 µM	0.332 µM	1.96 µM	0.0671 µM	0.863 µM	0.692 µM	2.2 µM	1.92 µM	13.3 µM	0.834 µM	2.15 µM
CNCCn1c(=O)c2cc(OC)c(OC)cc2c2ccc3cc4c(cc3c21)OCO4	0.0838 µM	3.43 µM	0.263 µM	4.37 µM	0.192 µM	1.03 µM	0.16 µM	2.13 µM	0.0842 µM	0.376 µM	0.0465 µM	0.145 µM	0.0227 µM	0.211 µM	0.172 µM	0.812 µM	0.16 µM	0.854 µM	0.0862 µM	0.199 µM
O=C1C(c2ccccc2)=[N+]([O-])c2ccccc21	–	7.25 µM	–	–	–	37.8 µM	–	20.7 µM	–	56.9 µM	–	29.5 µM	–	47.2 µM	–	38.5 µM	–	26.1 µM	–	23.3 µM
Cc1[nH]nc(C(=O)n2nc(N)c3ccccc32)c1[N+](=O)[O-]	> 100 µM	> 100 µM	> 90.8 µM	> 100 µM	> 100 µM	> 100 µM	56.4 µM	> 100 µM	> 100 µM	> 100 µM	> 100 µM	> 100 µM	> 89.4 µM	> 100 µM	> 100 µM	> 100 µM	> 100 µM	> 100 µM	> 100 µM	> 100 µM
Cc1c(C(=O)NCCN2CCOCC2)cn2ncnc(Oc3ccc(NC(=O)Nc4ccc(Cl)c(C(F)(F)F)c4)cc3)c12	2.02 µM	6.38 µM	1.66 µM	3.21 µM	–	–	1.02 µM	2.8 µM	0.545 µM	3.01 µM	1.34 µM	2.84 µM	0.433 µM	2.6 µM	1.09 µM	2.76 µM	–	–	1.65 µM	3.01 µM
CCN(CC)C(=S)SC	–	> 100 µM	–	> 100 µM	–	> 100 µM	–	> 100 µM	–	> 100 µM	–	> 100 µM	–	> 100 µM	–	> 100 µM	–	> 100 µM	–	> 100 µM
CCOC(=O)/C=C/C1=C(c2cccs2)c2ccccc2CC1	36.5 µM	> 100 µM	24.2 µM	54.3 µM	25.4 µM	70.2 µM	37.4 µM	> 100 µM	21.2 µM	49.4 µM	18.7 µM	40.9 µM	–	–	24.8 µM	69.7 µM	21.2 µM	53.7 µM	16.8 µM	31.8 µM
O=C1NC(=S)S/C1=C(/C=C(\CC(=O)c1ccccc1)c1ccc(Cl)cc1)c1ccccc1	35.6 µM	> 100 µM	33 µM	> 100 µM	28.5 µM	90.4 µM	–	–	–	–	21.6 µM	43.7 µM	19.5 µM	51.6 µM	39.9 µM	> 100 µM	21.9 µM	61.8 µM	19.1 µM	34.3 µM
CCN(CC)C(=S)Oc1cc2oc(=O)cc(C)c2cc1Cl	–	> 100 µM	–	> 100 µM	–	> 100 µM	–	> 100 µM	–	> 100 µM	–	73.7 µM	–	> 100 µM	–	–	–	> 100 µM	–	> 100 µM
O=c1cccc(C2CC(CO)C3CCCCN3C2)[nH]1 (centres undefined)	–	> 100 µM	–	> 100 µM	–	> 100 µM	–	> 100 µM	–	> 100 µM	–	> 100 µM	–	> 100 µM	–	–	–	> 100 µM	–	> 100 µM
CCn1c2ccc(O)cc2c2c(C)c3c[n+](C)ccc3c(C)c21	0.435 µM	4.13 µM	1.55 µM	8.29 µM	0.896 µM	27.6 µM	2.07 µM	30.3 µM	7.43 µM	68 µM	2.05 µM	22.8 µM	2.06 µM	95.1 µM	1.32 µM	7.12 µM	–	–	2.27 µM	10.8 µM
Cc1sc2nc3c4ccccc4c(NCCCN(C)C)nn3c(=O)c2c1C	12.7 µM	26.1 µM	11.7 µM	26.9 µM	5.26 µM	23.1 µM	5.57 µM	20 µM	4.8 µM	11.7 µM	–	–	0.782 µM	3.38 µM	1.97 µM	4.96 µM	2.22 µM	4.79 µM	3.01 µM	9.8 µM
